# From PMC9487510, “A Novel Oral GyrB/ParE Dual Binding Inhibitor Effective against Multidrug-Resistant Neisseria gonorrhoeae and Other High-Threat Pathogens” (Antimicrobial Agents and Chemotherapy, 2022)
# Assays:
# [1] = test system: Neisseria gonorrhoeae strain H041; experiment: Estradiol-treated mouse model of cervico-vaginal infection, strain H041; type: in vivo, mouse (BALB/c); settings: 48 mg/kg, 5 QD, IP; P = 0.007
# [2] = test system: N. gonorrhoeae (ATCC 700825); experiment: Intravaginal infection model, ovariectomized BALB/c mice, strain ATCC 700825; type: in vivo, mouse (BALB/c); settings: 26 h, IP 48 mg/kg QD, relative to vehicle or baseline
# [3] = test system: N. gonorrhoeae clinical isolates; experiment: MIC, agar dilution (CLSI); type: cell-based, Neisseria gonorrhoeae
# VRSA = experiment: MIC, in vitro susceptibility testing (CLSI); type: cell-based, Staphylococcus aureus; settings: Staphylococcus aureus, VRSA
# VISA = experiment: MIC, in vitro susceptibility testing (CLSI); type: cell-based, Staphylococcus aureus; settings: Staphylococcus aureus, VISA
# S. aureus VRSA, VRS-2 = experiment: Neutropenic murine thigh infection model; type: in vivo, mouse (ICR); settings: PO 50 mg/kg BID, 26 h after infection
# E. coli = test system: E. coli; parameters: method as in PMID 28483959, PMID 31315953; settings: cited from earlier work
structure (smiles),measurement,setting,value
"CNC(C)C1CCC(N)C(OC2C(N)CC(N)C(OC3OCC(C)(O)C(NC)C3O)C2O)O1 (centres unmarked) [GEN, gentamicin]",average CFU per mL of vaginal swab suspension over time,[1],significantly different than the vehicle control group
same,reduction in the bacterial counts,[2],No significant reduction in the bacterial counts
"CC1(C)S[C@@H]2[C@H](NC(=O)Cc3ccccc3)C(=O)N2[C@H]1C(=O)O [Pen, penicillin]",MIC50,[3]; 96 clinical isolates,1 µg/mL
same,MIC90,[3]; 96 clinical isolates,2 µg/mL
same,MIC range,[3]; 96 clinical isolates,<0.008 to 4 µg/mL
same,MIC,[3]; strain CDC1 (GCREF2012 016),1 µg/mL
same,MIC,[3]; strain CDC2 (GCREF2012 045),1 µg/mL
same,MIC,[3]; strain CDC3 (GCREF2013 013),1 µg/mL
same,MIC,[3]; strain CDC4 (GCREF2013 030),1 µg/mL
same,MIC,[3]; strain CDC5 (GCREF2012 001),1 µg/mL
same,MIC,[3]; strain CDC6 (GCREF2012 002),1 µg/mL
same,MIC,[3]; strain CDC8 (GCREF2012 004),0.25 µg/mL
same,MIC,[3]; strain CDC9 (GCREF2012 005),1 µg/mL
same,MIC,[3]; strain CDC10 (GCREF2012 006),1 µg/mL
same,MIC,[3]; strain CDC11 (GCREF2012 007),1 µg/mL
same,MIC,[3]; strain CDC12 (GCREF2012 008),1 µg/mL
same,MIC,[3]; strain CDC13 (GCREF2012 009),1 µg/mL
same,MIC,[3]; strain CDC14 (GCREF2012 010),1 µg/mL
same,MIC,[3]; strain CDC15 (GCREF2012 011),0.125 µg/mL
same,MIC,[3]; strain CDC16 (GCREF2012 012),2 µg/mL
same,MIC,[3]; strain CDC18 (GCREF2012 014),1 µg/mL
same,MIC,[3]; strain CDC19 (GCREF2012 015),0.25 µg/mL
same,MIC,[3]; strain CDC20 (GCREF2012 017),0.125 µg/mL
same,MIC,[3]; strain CDC21 (GCREF2012 018),1 µg/mL
same,MIC,[3]; strain CDC22 (GCREF2012 019),0.25 µg/mL
same,MIC,[3]; strain CDC23 (GCREF2012 020),1 µg/mL
same,MIC,[3]; strain CDC24 (GCREF2012 021),1 µg/mL
same,MIC,[3]; strain CDC25 (GCREF2012 022),2 µg/mL
same,MIC,[3]; strain CDC26 (GCREF2012 023),0.25 µg/mL
same,MIC,[3]; strain CDC27 (GCREF2012 024),1 µg/mL
same,MIC,[3]; strain CDC28 (GCREF2012 025),1 µg/mL
same,MIC,[3]; strain CDC29 (GCREF2012 026),1 µg/mL
same,MIC,[3]; strain CDC30 (GCREF2012 027),1 µg/mL
same,MIC,[3]; strain CDC31 (GCREF2012 028),2 µg/mL
same,MIC,[3]; strain CDC32 (GCREF2012 029),1 µg/mL
same,MIC,[3]; strain CDC33 (GCREF2012 030),1 µg/mL
same,MIC,[3]; strain CDC34 (GCREF2012 031),1 µg/mL
same,MIC,[3]; strain CDC35 (GCREF2012 032),2 µg/mL
same,MIC,[3]; strain CDC36 (GCREF2012 033),0.25 µg/mL
same,MIC,[3]; strain CDC37 (GCREF2012 034),1 µg/mL
same,MIC,[3]; strain CDC38 (GCREF2012 035),1 µg/mL
same,MIC,[3]; strain CDC39 (GCREF2012 036),2 µg/mL
same,MIC,[3]; strain CDC40 (GCREF2012 037),1 µg/mL
same,MIC,[3]; strain CDC41 (GCREF2012 038),2 µg/mL
same,MIC,[3]; strain CDC42 (GCREF2012 039),2 µg/mL
same,MIC,[3]; strain CDC43 (GCREF2012 040),2 µg/mL
same,MIC,[3]; strain CDC45 (GCREF2012 042),2 µg/mL
same,MIC,[3]; strain CDC46 (GCREF2012 043),1 µg/mL
same,MIC,[3]; strain CDC47 (GCREF2012 044),1 µg/mL
same,MIC,[3]; strain CDC48 (GCREF2012 046),1 µg/mL
same,MIC,[3]; strain CDC49 (GCREF2012 047),2 µg/mL
same,MIC,[3]; strain CDC50 (GCREF2012 048),2 µg/mL
same,MIC,[3]; strain CDC51 (GCREF2012 049),2 µg/mL
same,MIC,[3]; strain CDC52 (GCREF2012 050),2 µg/mL
same,MIC,[3]; strain CDC53 (GCREF2012 051),2 µg/mL
same,MIC,[3]; strain CDC54 (GCREF2012 052),2 µg/mL
same,MIC,[3]; strain CDC55 (GCREF2013 001),1 µg/mL
same,MIC,[3]; strain CDC56 (GCREF2013 002),1 µg/mL
same,MIC,[3]; strain CDC57 (GCREF2013 003),1 µg/mL
same,MIC,[3]; strain CDC58 (GCREF2013 004),2 µg/mL
same,MIC,[3]; strain CDC59 (GCREF2013 044),2 µg/mL
same,MIC,[3]; strain CDC60 (GCREF2013 005),4 µg/mL
same,MIC,[3]; strain CDC61 (GCREF2013 006),4 µg/mL
same,MIC,[3]; strain CDC62 (GCREF2013 007),0.25 µg/mL
same,MIC,[3]; strain CDC64 (GCREF2013 009),0.5 µg/mL
same,MIC,[3]; strain CDC65 (GCREF2013 010),0.5 µg/mL
same,MIC,[3]; strain CDC66 (GCREF2013 011),0.25 µg/mL
same,MIC,[3]; strain CDC67 (GCREF2013 014),0.5 µg/mL
same,MIC,[3]; strain CDC68 (GCREF2013 016),1 µg/mL
same,MIC,[3]; strain CDC69 (GCREF2013 017),1 µg/mL
same,MIC,[3]; strain CDC70 (GCREF2013 018),2 µg/mL
same,MIC,[3]; strain CDC71 (GCREF2013 019),0.25 µg/mL
same,MIC,[3]; strain CDC72 (GCREF2013 020),2 µg/mL
same,MIC,[3]; strain CDC73 (GCREF2013 021),0.5 µg/mL
same,MIC,[3]; strain CDC74 (GCREF2013 022),0.25 µg/mL
same,MIC,[3]; strain CDC75 (GCREF2013 023),0.5 µg/mL
same,MIC,[3]; strain CDC76 (GCREF2013 024),0.5 µg/mL
same,MIC,[3]; strain CDC77 (GCREF2013 025),0.125 µg/mL
same,MIC,[3]; strain CDC78 (GCREF2013 026),0.5 µg/mL
same,MIC,[3]; strain CDC79 (GCREF2013 027),1 µg/mL
same,MIC,[3]; strain CDC80 (GCREF2013 028),2 µg/mL
same,MIC,[3]; strain CDC81 (GCREF2013 029),2 µg/mL
same,MIC,[3]; strain CDC82 (GCREF2013 031),1 µg/mL
same,MIC,[3]; strain CDC83 (GCREF2013 032),0.25 µg/mL
same,MIC,[3]; strain CDC84 (GCREF2013 033),0.25 µg/mL
same,MIC,[3]; strain CDC87 (GCREF2013 036),2 µg/mL
same,MIC,[3]; strain CDC88 (GCREF2013 037),2 µg/mL
same,MIC,[3]; strain CDC89 (GCREF2013 038),1 µg/mL
same,MIC,[3]; strain CDC90 (GCREF2013 039),2 µg/mL
same,MIC,[3]; strain CDC91 (GCREF2013 040),2 µg/mL
same,MIC,[3]; strain CDC92 (GCREF2013 041),2 µg/mL
same,MIC,[3]; strain CDC93 (GCREF2013 042),1 µg/mL
same,MIC,[3]; strain CDC94 (GCREF2013 043),0.25 µg/mL
same,MIC,[3]; strain CDC95 (GCREF2013 045),2 µg/mL
same,MIC,[3]; strain CDC96 (GCREF2013 046),1 µg/mL
same,MIC,[3]; strain CDC97 (GCREF2013 047),1 µg/mL
same,MIC,[3]; strain CDC98 (GCREF2013 048),0.25 µg/mL
same,MIC,[3]; strain CDC99 (GCREF2013 012),0.25 µg/mL
same,MIC,[3]; strain CDC100 (GCREF2013 015),1 µg/mL
"CO[C@H]1/C=C/O[C@@]2(C)Oc3c(C)c(O)c4c(O)c(c(/C=N/N5CCN(C)CC5)c(O)c4c3C2=O)NC(=O)/C(C)=C\C=C\[C@H](C)[C@H](O)[C@@H](C)[C@@H](O)[C@@H](C)[C@H](OC(C)=O)[C@@H]1C [Rif, rifampicin]",MIC,VRSA; strain 2 25 23,< 0.078 µg/mL
same,MIC,VRSA; strain 2 25 24,< 0.078 µg/mL
same,MIC,VRSA; strain 2 25 25,< 0.078 µg/mL
same,MIC,VRSA; strain 2 25 26,< 0.078 µg/mL
same,MIC,VRSA; strain 2 25 27,< 0.078 µg/mL
same,MIC,VRSA; strain 2 25 28,< 0.078 µg/mL
same,MIC,VRSA; strain VRS2 (VRS-2),> 10 µg/mL
same,MIC,VISA; strain 2 11 43,< 0.078 µg/mL
same,MIC,VISA; strain 2 11 56,> 10 µg/mL
same,MIC,VISA; strain 2 11 57,< 0.078 µg/mL
same,MIC,VISA; strain 2 11 61,< 0.078 µg/mL
same,MIC,VISA; strain 2 11 71,> 10 µg/mL
same,MIC,VISA; strain 2 11 78,< 0.078 µg/mL
same,MIC,VISA; strain 2 11 86,> 10 µg/mL
same,MIC,VISA; strain 2 13 52,> 10 µg/mL
CC(=O)NC[C@H]1CN(c2ccc(N3CCOCC3)c(F)c2)C(=O)O1 [linezolid],bacterial count reduction in thigh,"S. aureus VRSA, VRS-2",3.41 log10
C[C@@H]1CN2c3c(cc4c(N5C(=O)OC[C@@H]5C)noc4c3F)CC3(C(=O)NC(=O)NC3=O)[C@H]2[C@H](C)O1 [zoliflodacin],MIC,E. coli,4 µg/mL
